# Patent US20100204140A1, “USE OF A PEPTIDE AS A THERAPEUTIC AGENT” (priority 2007, published 2010)
# How the values were obtained:
# [1] = test system: HIV-1IIIB in CEM-SS cells; experiment: HIV-1 antiviral assay (CPE reduction, MTS); assay type: cell-based; conditions: peptide 10 micrograms per ml, 6 days post-infection
# [2] = test system: CEM-SS cells; experiment: Cytotoxicity in HIV-1 assay (MTS cell viability); conditions: peptide 10 micrograms per ml
# [3] = test system: HepG2-2.2.15 cells; experiment: Cytotoxicity in HBV assay (dye uptake cell viability); assay type: cell-based; conditions: test peptide 10 micrograms per ml, % cell control
# [4] = test system: MRC-5 cells (human embryonal lung fibroblasts); conditions: 6 days
# [5] = test system: hepatitis B virus (HBV) ayw strain in HepG2-2.2.15 cells; experiment: HBV replication assay (secreted HBV DNA, TaqMan PCR); assay type: cell-based; conditions: test peptide 10 micrograms per ml; six days; HBV DNA in supernatant
# Method: HepG2-2.2.15 is a stable cell line containing the hepatitis B virus (HBV) ayw strain genome (ATCC Cat. No. CRL-11997). Antiviral compounds blocking any late step of viral replication such as transcription, translation, pregenome encapsidation, reverse transcription, particle assembly and release can be identified and characterized using this cell line.
# HepG2-2.2.15 cells were plated in 96-well microtiter plates. After 16-24 hours the confluent monolayer of HepG2-2.2.15 cells was washed and the medium was replaced with complete medium containing test peptide—10 micrograms per ml—in duplicate. […] Three days later the culture medium was replaced with fresh medium containing the peptide. Six days following the initial administration of the peptide, the cell culture supernatants was collected, treated with pronase and DNAse and then used in a real-time quantitative TaqMan PCR assay. The PCR-amplified HBV DNA was detected in real-time by monitoring increases in fluorescence signals that result from the exonucleolytic degradation of a quenched fluorescence probe molecule that hybridizes to the amplified HBV DNA. For each PCR amplification, a standard curve was simultaneously generated using dilutions of purified HBV DNA. Antiviral activity was calculated from the reduction in HBV DNA levels (% virus control). […]
# [6] = Cytotoxicity in HBV assay (dye uptake cell viability); assay type: cell-based; conditions: human, HepG2-2.2.15 cells (stable line containing HBV ayw genome), test peptide 10 micrograms per ml, % cell control
# [7] = test system: Pseudomonas aeruginosa; assay type: cell-based; conditions: 5 micrograms per ml
# [8] = test system: Streptococcus pneumoniae; assay type: cell-based; conditions: 5 micrograms per ml
# [9] = test system: Human A549 cells; experiment: Propidium iodide cell cycle assay; assay type: cell-based; conditions: 24 hours, test peptide 10 micrograms per ml
# [10] = test system: Human Peripheral Blood Mononuclear Cells (PBMC), T cell proliferation; experiment: T cell proliferation assay (PHA, 3H-thymidine); assay type: cell-based; conditions: test peptide 10 micrograms per ml, 3 days plus 12 hours 3H-thymidine
# [11] = test system: Human Peripheral Blood Mononuclear Cells (PBMC), B cell proliferation; experiment: B cell proliferation assay (SAC plus IL-2, 3H-thymidine); assay type: cell-based; conditions: test peptide 10 micrograms per ml, 3 days plus 12 hours 3H-thymidine
# [12] = test system: RAW 264.7 cells; experiment: Phagocytosis assay (Fluorescein-labeled Escherichia coli); assay type: cell-based, mouse; conditions: test peptide 10 micrograms per ml
# [13] = test system: spleen cells of Ovalbumin-immunized Balb/c mice; experiment: Th1/Th2 cytokine profiling assay; assay type: cell-based, mouse; conditions: test peptide 10 micrograms per ml; Ovalbumin restimulation; 72 hours
# [14] = test system: TNF alpha production in PBMC-derived macrophages; experiment: TNF alpha production assay (LPS-stimulated macrophages, ELISA); assay type: cell-based, human; conditions: test peptide 10 micrograms per ml, lipopolysaccharide 200 ng/ml, overnight
# From the text: Not stimulated macrophages served as negative background control.
# [15] = test system: Primary Human endothelial cells (HUVEC); experiment: Endothelial cell migration assay; assay type: cell-based; conditions: test peptide 10 micrograms per ml, 22 hours
# [16] = test system: HUVEC; experiment: Endothelial tube formation assay; assay type: cell-based, human; conditions: test peptide 10 micrograms per ml, 20 hours
# From the text: Positive control was vehicle only.
# [17] = test system: MRSA; conditions: 5 micrograms per ml
# [18] = in vitro; conditions: human, CEM-SS cells
# [19] = in vitro; conditions: human, MRC-5 cells (human embryonal lung fibroblasts)
# [20] = test system: HCMV strain AD169 in MRC-5 cells; experiment: HCMV plaque reduction assay; conditions: HCMV AD169 in MRC-5 cells; peptide 10 micrograms per ml; 7-10 days
smiles,measurement,setting,value
"Cc1cn([C@H]2C[C@H](N=[N+]=[N-])[C@@H](CO)O2)c(=O)[nH]c1=O [AZT, reference compound]",% CPE reduction in HIV-1 infected CEM-SS cells,[1],99%
same,% Cell viability,[2],97%
"Nc1ccn([C@@H]2CS[C@H](CO)O2)c(=O)n1 [Compound 3TC, reference compound]",% Cell viability,[3],95.8%
Nc1nc(O)c2ncn(COC(CO)CO)c2n1 [Ganciclovir],% Cell viability,[4],100%
CSCC[C@H](NC(=O)[C@H](CC(C)C)NC(=O)CNC(=O)[C@@H](NC(=O)[C@H](Cc1ccccc1)NC(=O)[C@H](Cc1ccccc1)NC(=O)[C@H](CC(=O)O)NC(=O)[C@H](Cc1c[nH]cn1)NC(=O)[C@H](CCSC)NC(=O)[C@@H](N)CC(=O)O)C(C)C)C(N)=O [Neurokinin B],% CPE reduction in HIV-1 infected CEM-SS cells,[1],0.0%
same,% inhibition of HBV replication in HEP G2 cells,[5],78.5%
same,"viability at 144 h, 10 micrograms per ml",[6],96.1%
same,% inhibition,[7],0.0%
same,% inhibition,[8],0.0%
same,Cell cycle analysis G0/G1,[9],53.0
same,Cell cycle analysis G2/M,[9],14.8
same,Cell cycle analysis S,[9],32.2
same,% of PHA induced control,[10],88.1%
same,% of SAC/IL2 induced control,[11],115.1%
same,% of control phagocytosis,[12],105.9%
same,IFNγ spleen cells; TH1 response (% of control),[13],126.8 % of control
same,IL-2 spleen cells (% of control),[13],198.0 % of control
same,IL-4 spleen cells; TH2 response (% of control),[13],103.5 % of control
same,IL-5 spleen cells; TH2 response (% of control),[13],99.2 % of control
same,TNF-a spleen cells; TH1 response (% of control),[13],151.0 % of control
same,% of LPS induction,[14],115.9%
same,% inhibition of migration,[15],−2%
same,% inhibition of tube formation,[16],14%
same,% inhibition,[17],0.0%
same,viability at 10 micrograms per ml,[18],98.5%
same,viability at 144 h,[19],100%
same,% plaque reduction,[20],3.2%
